These results are taken from patent US10428087B2, “Pyrimidinones as PI3K inhibitors” (Incyte Corporation, priority 2009, dated 2019).

The subject of one assay is B cells. Nature of the assay: B cell proliferation assay (Example B1). Format: cell-based. As to conditions: purified human B cells, anti-human IgM, [3H]-thymidine. How it is done: To acquire B cells, human PBMC were isolated from the peripheral blood of normal, drug free donors by standard density gradient centrifugation on Ficoll-Hypague (GE Healthcare, Piscataway, N.J.) and incubated with anti-CD19 microbeads (Miltenyi Biotech, Auburn, Calif.). The B cells were then purified by positive immunosorting using an autoMacs (Miltenyi Biotech) according to the manufacturer's instruction.
The purified B cells (2×10^5/well/200 μL) were cultured in 96-well ultra-low binding plates (Corning, Corning, N.Y.) in RPMI1640, 10% FBS and goat F(ab′)2 anti-human IgM ([…]) (Invitrogen, Carlsbad, Calif.), in the presence of different amount of test compounds, […] [^3H]-thymidine (1 μCi/well) (PerkinElmer, Boston, Mass.) in PBS was then added to the B cell cultures for an additional 12 hrs before the incorporated radioactivity was separated by filtration with water through GF/B filters (Packard Bioscience, Meriden, Conn.) and measured by liquid scintillation counting with a TopCount (Packard Bioscience). […] See Table 2 for data related to compounds of the invention.

The subject of assay [1] is Pfeiffer cell line (diffuse large B cell lymphoma). Nature of the assay: Pfeiffer cell proliferation assay (Example B2). Format: cell-based. The note with it: Pfeiffer cells, [3H]-thymidine. As to the method: Pfeiffer cell line (diffuse large B cell lymphoma) was purchased from ATCC (Manassas, Va.) and maintained in the culture medium recommended (RPMI and 10% FBS). To measure the anti-proliferation activity of the PI3Kδ submittals, the Pfeiffer cells were plated with the culture medium (2×10^3 cells/well/per 200 μl) into 96-well ultra-low binding plates (Corning, Corning, N.Y.), in the presence or absence of a concentration range of test compounds. After 3-4 days, [^3H]-thymidine (1 μCi/well) (PerkinElmer, Boston, Mass.) in PBS was then added to the cell culture for an additional 12 hrs before the incorporated radioactivity was separated by filtration with water through GF/B filters (Packard Bioscience, Meridenj, Conn.) and measured by liquid scintillation counting with a TopCount (Packard Bioscience). See Table 3 for data related to compounds of the invention.

Counter-ions that a name gives are not always drawn. Bounds are passed on as bounds.

Broadly, the IC50 is the concentration needed to halve the response being measured. A low value points to greater potency in that assay.

For `Cc1cccc2nc(C(C)Nc3ncnc4[nH]cnc34)c(-c3cccc(F)c3)c(=O)n12` (single isomer, unassigned) [Example 71, 3-(3-Fluorophenyl)-6-methyl-2-[1-(9H-purin-6-ylamino)ethyl]-4H-pyrido[1,2-a]pyrimidin-4-one trifluoroacetic acid salt], in the assay on B cells (B-cell), the IC50 was below 0.05 µM.

Turning to `Cc1cccc2nc(C(C)n3cnc4c(N)ncnc43)c(-c3ccccc3)c(=O)n12` (stereo not drawn) [Example 1, 2-[1-(6-amino-9H-purin-9-yl)ethyl]-6-methyl-3-phenyl-4H-pyrido[1,2-a]pyrimidin-4-one], the IC50 is below 0.05 µM with B cells (B-cell) and 0.1 to 0.5 µM in assay [1] (Homo sapiens, Pfeiffer).

Consider `CCC(Nc1ncnc2[nH]cnc12)c1nc2cccc(C)n2c(=O)c1-c1ccccc1` (stereo not drawn) [Example 2, 6-methyl-3-phenyl-2-[1-(9H-purin-6-ylamino)propyl]-4H-pyrido[1,2-a]pyrimidin-4-one], for which the IC50 is 0.1 to 0.5 µM in the assay on B cells (B-cell) and below 0.05 µM in assay [1] (Homo sapiens, Pfeiffer).

As to `CCC(Nc1ncnc2[nH]cnc12)c1nc2cccc(C)n2c(=O)c1-c1cncc(F)c1` (stereo not drawn) [Example 3, 3-(5-fluoropyridin-3-yl)-6-methyl-2-[1-(9H-purin-6-ylamino)propyl]-4H-pyrido[1,2-a]pyrimidin-4-one], the half-inhibitory concentration (IC50) with B cells (B-cell) is below 0.05 µM; in assay [1] (Homo sapiens, Pfeiffer), 0.1 to 0.5 µM.

As for `CCC(Nc1ncnc2[nH]cnc12)c1nc2cccc(C)n2c(=O)c1-c1cccc(F)c1` (stereo not drawn) [Example 4, 3-(3-fluorophenyl)-6-methyl-2-[1-(9H-purin-6-ylamino)propyl]-4H-pyrido[1,2-a]pyrimidin-4-one], the IC50 in the assay with B cells (B-cell) is below 0.05 µM; in assay [1] (Homo sapiens, Pfeiffer) it was 0.1 to 0.5 µM.

Take `CCC(Nc1ncnc2[nH]cnc12)c1nc2cccc(C)n2c(=O)c1-c1cc(F)cc(F)c1` (stereo not drawn) [Example 5, 3-(3,5-difluorophenyl)-6-methyl-2-[1-(9H-purin-6-ylamino)propyl]-4H-pyrido[1,2-a]pyrimidin-4-one]: the IC50 in the assay with B cells (B-cell) was below 0.05 µM; in assay [1] (Homo sapiens, Pfeiffer), 0.05 to 0.1 µM.

With `CCC(Nc1ncnc2[nH]cnc12)c1nc2cccc(C)n2c(=O)c1-c1cccnc1F` (stereo not drawn) [Example 6, 3-(2-fluoropyridin-3-yl)-6-methyl-2-[1-(9H-purin-6-ylamino)propyl]-4H-pyrido[1,2-a]pyrimidin-4-one], the IC50 in the assay with B cells (B-cell) fell in the range of 0.05 to 0.1 µM; in assay [1] (Homo sapiens, Pfeiffer) it was 0.1 to 0.5 µM.

For the compound `CCC(Nc1ncnc2[nH]cnc12)c1nc2cccc(C)n2c(=O)c1-c1cn[nH]c1` (stereo not drawn) [Example 7, 6-methyl-2-[1-(9H-purin-6-ylamino)propyl]-3-(1H-pyrazol-4-yl)-4H-pyrido[1,2-a]pyrimidin-4-one], the IC50 is above 0.5 µM in the assay with B cells (B-cell) and 0.5 to 1 µM in assay [1] (Homo sapiens, Pfeiffer).

Regarding `Cc1csc2nc(C(C)Nc3ncnc4[nH]cnc34)c(-c3ccccc3)c(=O)n12` (stereo not drawn) [Example 8, 3-methyl-6-phenyl-7-[1-(9H-purin-6-ylamino)ethyl]-5H-[1,3]thiazolo[3,2-a]pyrimidin-5-one], the half-maximal inhibitory concentration (IC50) in the assay on B cells (B-cell) was below 0.05 µM; in assay [1] (Homo sapiens, Pfeiffer), below 0.05 µM.

With `Cc1csc2nc(C(C)Nc3nc(N)nc4[nH]cnc34)c(-c3ccccc3)c(=O)n12` (stereo not drawn) [Example 9, 7-{1-[(2-amino-9H-purin-6-yl)amino]ethyl}-3-methyl-6-phenyl-5H-[1,3]thiazolo[3,2-a]pyrimidin-5-one], the IC50 was below 0.05 µM with B cells (B-cell) and below 0.05 µM in assay [1] (Homo sapiens, Pfeiffer).

Regarding `Cc1csc2nc(C(C)Nc3ncnc4[nH]cnc34)c(-c3cccc(F)c3)c(=O)n12` (stereo not drawn) [Example 10, 6-(3-fluorophenyl)-3-methyl-7-[1-(9H-purin-6-ylamino)ethyl]-5H-[1,3]thiazolo[3,2-a]pyrimidin-5-one], the IC50 in the assay with B cells (B-cell) is below 0.05 µM; in assay [1] (Homo sapiens, Pfeiffer), below 0.05 µM.

With `Cc1csc2nc(C(C)Nc3nc(N)nc4[nH]cnc34)c(-c3cccc(F)c3)c(=O)n12` (stereo not drawn) [Example 11, 7-{1-[(2-amino-9H-purin-6-yl)amino]ethyl}-6-(3-fluorophenyl)-3-methyl-5H-[1,3]thiazolo[3,2-a]pyrimidin-5-one], the IC50 was below 0.05 µM in the assay on B cells (B-cell) and below 0.05 µM in assay [1] (Homo sapiens, Pfeiffer).

Regarding `Cc1csc2nc(C(C)Nc3nc(N)nc4[nH]cnc34)c(-c3cc(F)cc(F)c3)c(=O)n12` (stereo not drawn) [Example 13, 7-{1-[(2-amino-9H-purin-6-yl)amino]ethyl}-6-(3,5-difluorophenyl)-3-methyl-5H-[1,3]thiazolo[3,2-a]pyrimidin-5-one], in the assay with B cells (B-cell), the half-maximal inhibitory concentration (IC50) was below 0.05 µM.

Take `Cc1csc2nc([C@H](C)Nc3ncnc4[nH]cnc34)c(-c3cccc(F)c3)c(=O)n12` [Example 15, (S)-7-(1-(9H-purin-6-ylamino)ethyl)-6-(3-fluorophenyl)-3-methyl-5H-thiazolo[3,2-a]pyrimidin-5-one]: in the assay on B cells (B-cell), the IC50 was below 0.05 µM.

`Cc1csc2nc(C(C)Nc3ncnc4[nH]cnc34)c(-c3cccc(F)c3)c(=O)n12` (stereo not drawn) [Example 30, 6-(3-fluorophenyl)-3-methyl-7-[1-(9H-purin-6-ylamino)ethyl]-5H-[1,3]thiazolo[3,2-a]pyrimidin-5-one]: the half-maximal inhibitory concentration (IC50) (in the assay on B cells; in assay [1]) was below 0.05 µM each time.
